Assay results reported in patent US20250312299A1, “COMPOSITION COMPRISING THIOUREA DERIVATIVE FOR PREVENTION OR TREATMENT OF FIBROTIC DISEASE” (THERASID BIOSCIENCE INC., priority 2022, published 2025).

Columns and labels:
Type in all cases: cell-based
collagen type 1 (COL1A1) [1] = experiment: Western blot protein expression of COL1A1 in TGF-β treated HK-2 cells; settings: TGF-β 10 ng/ml + compound 20 μM, 48 hours, FIGS. 16 to 18
From the text: (§1) In order to confirm the inhibitory effect of the compound of the present invention on the protein expression of fibrosis-related markers, the protein expression of collagen type 1 (type 1 collagen; COL1A1) and fibronectin, which are fibrosis-related markers, and HSP60 was confirmed through Western blot analysis. As a control group, TGF-β (transforming growth factor-β) was used. TGF-β is known to promote the production of extracellular matrix such as collagen and promote fibrosis of tissues.
(§2) HK-2 cells were seeded at 1×10^6 per dish in a 60 φ dish, cultured for 24 hours in a 37° C., 5% CO2 incubator, and then treated with TGF-β at a concentration of 10 ng/ml and the compound of the present invention (TB-840) at a concentration of 20 μM, and cultured for 48 hours. After collecting the cultured cells, the cell pellet was spun down using a centrifuge (13,000 rpm, 5 min, 4° C.) and then lysed by adding lysis buffer with vortexing for 1 hour at 10-minute intervals, and then cell membrane components, etc. were removed using a centrifuge (13,000 rpm, 20 min, 4° C.). The sample was prepared by measuring according to the protocol using a BCA protein assay kit. […] Thereafter, the primary antibody was reacted overnight, and then the secondary antibody was bound, and the protein expression of COL1A1 and fibronectin was measured using an Azure biosystems (C300) device.

HSP60 [2] = experiment: Western blot protein expression of HSP60 in TGF-β treated A549 cells; settings: TGF-β 10 ng/ml + compound 20 μM, 24 hours, FIGS. 13 to 15
From the text: as §1
as §2, with “A549” for “HK-2”, “2.5×10^5” for “1×10^6”, “well” for “dish”, “6 well plate,” for “60 φ dish,”, “24” for “48”

collagen type 1 (COL1A1) [3] = experiment: RT-qPCR gene expression of COL1A1 in TGF-β treated LX2 cells; settings: TGF-β 10 ng/ml + compound 20 μM, 24 hours, FIG. 4
Experimental: as §1, with “gene” for “protein”, “markers,” for “markers, and HSP60”, “RT-qPCR” for “Western blot”
(§3) LX2 cells were seeded at 3.5×10^5 per well in a 6 well plate, cultured for 24 hours in a 37° C., 5% CO2 incubator, and then treated with TGF-β at a concentration of 10 ng/ml and the compound of the present invention (TB-840) at a concentration of 20 μM, and cultured for 24 hours. After culturing for 24 hours, the cells were washed twice with phosphate buffered saline (PBS), and then RNA extraction was performed using a RNA-spin™ total RNA extraction kit (iNtRON Biotechnology, Cat no. 17211) protocol. Thereafter, the RNA concentration was measured using a Nanodrop device, and cDNA was synthesized using a Maxime™ RT PreMix (iNtRON Biotechnology, Cat no. 25081) and a MiniAmp™ Termal Cycler device. Thereafter, the gene expression levels of COL1A1 and fibronectin were measured using a QuantStudio 5 Real-Time PCR device.

collagen type 1 (COL1A1) [4] = experiment: Western blot protein expression of COL1A1 in TGF-β treated LX2 cells; settings: TGF-β 10 ng/ml + compound 20 μM, 48 hours, FIGS. 10 to 12
From the text: as §1
as §2, with “LX2” for “HK-2”, “7.6×10^5” for “1×10^6”

fibronectin [5] = experiment: Western blot protein expression of fibronectin in TGF-β treated HK-2 cells; settings: TGF-β 10 ng/ml + compound 20 μM, 48 hours, FIGS. 16 to 18
From the text: as §1, §2

HSP60 [6] = experiment: Western blot protein expression of HSP60 in TGF-β treated LX2 cells; settings: TGF-β 10 ng/ml + compound 20 μM, 48 hours, FIGS. 10 to 12
From the text: as §1
as §2, with “LX2” for “HK-2”, “7.6×10^5” for “1×10^6”

LX2 cells = experiment: CCK-8 cell viability assay, liver cell line (LX2); settings: LX2 liver (stellate) cells, 20 μM, 24 hours, CCK-8, FIG. 1
Experimental: (§4) LX2 cells, which are liver cells (stellate cells), were seeded at 1×10^4 per well in a 96 well plate, cultured for 24 hours in a 37° C., 5% CO2 incubator, and then treated with the compound of the present invention (TB-840) at a concentration of 20 μM for 24 hours. After culturing for 24 hours, the cells were treated with 10 μl of CCK-8 solution for 2 hours.

fibronectin [7] = experiment: RT-qPCR gene expression of fibronectin in TGF-β treated A549 cells; settings: TGF-β 10 ng/ml + compound 20 μM, 24 hours, FIG. 7
Experimental: as §1, with “gene” for “protein”, “markers,” for “markers, and HSP60”, “RT-qPCR” for “Western blot”
as §3, with “A549” for “LX2”, “2.5×10^5” for “3.5×10^5”

HK-2 cells = experiment: CCK-8 cell viability assay, kidney cell line (HK-2); settings: HK-2 kidney proximal tubular cells, 20 μM, 24 hours, CCK-8, FIG. 3
Experimental: as §4, with “HK-2” for “LX2”, “kidney” for “liver”, “(proximal tubular” for “(stellate”

fibronectin [8] = experiment: Western blot protein expression of fibronectin in TGF-β treated LX2 cells; settings: TGF-β 10 ng/ml + compound 20 μM, 48 hours, FIGS. 10 to 12
From the text: as §1
as §2, with “LX2” for “HK-2”, “7.6×10^5” for “1×10^6”

fibronectin [9] = experiment: Western blot protein expression of fibronectin in TGF-β treated A549 cells; settings: TGF-β 10 ng/ml + compound 20 μM, 24 hours, FIGS. 13 to 15
From the text: as §1
as §2, with “A549” for “HK-2”, “2.5×10^5” for “1×10^6”, “well” for “dish”, “6 well plate,” for “60 φ dish,”, “24” for “48”

A549 cells = experiment: CCK-8 cell viability assay, lung cell line (A549); settings: A549 lung carcinoma cells, 20 μM, 24 hours, CCK-8, FIG. 2
Experimental: as §4, with “A549” for “LX2”, “lung” for “liver”, “(lung carcinoma” for “(stellate”, “1.5×10^4” for “1×10^4”

collagen type 1 (COL1A1) [10] = experiment: RT-qPCR gene expression of COL1A1 in TGF-β treated A549 cells; settings: TGF-β 10 ng/ml + compound 20 μM, 24 hours, FIG. 6
Experimental: as §1, with “gene” for “protein”, “markers,” for “markers, and HSP60”, “RT-qPCR” for “Western blot”
as §3, with “A549” for “LX2”, “2.5×10^5” for “3.5×10^5”

collagen type 1 (COL1A1) [11] = experiment: RT-qPCR gene expression of COL1A1 in TGF-β treated HK-2 cells; settings: TGF-β 10 ng/ml + compound 20 μM, 24 hours, FIG. 8
Experimental: as §1, with “gene” for “protein”, “markers,” for “markers, and HSP60”, “RT-qPCR” for “Western blot”
as §3, with “HK-2” for “LX2”, “2×10^5” for “3.5×10^5”

HSP60 [12] = experiment: Western blot protein expression of HSP60 in TGF-β treated HK-2 cells; settings: TGF-β 10 ng/ml + compound 20 μM, 48 hours, FIGS. 16 to 18
From the text: as §1, §2

collagen type 1 (COL1A1) [13] = experiment: Western blot protein expression of COL1A1 in TGF-β treated A549 cells; settings: TGF-β 10 ng/ml + compound 20 μM, 24 hours, FIGS. 13 to 15
From the text: as §1
as §2, with “A549” for “HK-2”, “2.5×10^5” for “1×10^6”, “well” for “dish”, “6 well plate,” for “60 φ dish,”, “24” for “48”

fibronectin [14] = experiment: RT-qPCR gene expression of fibronectin in TGF-β treated HK-2 cells; settings: TGF-β 10 ng/ml + compound 20 μM, 24 hours, FIG. 9
Experimental: as §1, with “gene” for “protein”, “markers,” for “markers, and HSP60”, “RT-qPCR” for “Western blot”
as §3, with “HK-2” for “LX2”, “2×10^5” for “3.5×10^5”

fibronectin [15] = experiment: RT-qPCR gene expression of fibronectin in TGF-β treated LX2 cells; settings: TGF-β 10 ng/ml + compound 20 μM, 24 hours, FIG. 5
Experimental: as §1, with “gene” for “protein”, “markers,” for “markers, and HSP60”, “RT-qPCR” for “Western blot”
as §3

## CNC(=S)NCc1ccc(OCc2ccccc2)cc1 [TB-840, 1-(4-benzyloxy-benzyl)-3-methyl-thiourea]
Collagen type 1 (COL1A1) [1]
  protein expression of COL1A1 compared to the group treated with TGF-β: reduced
HSP60 [2]
  protein expression of HSP60: no change
Collagen type 1 (COL1A1) [3]
  gene expression of COL1A1 compared to the group treated with TGF-β: reduced
Collagen type 1 (COL1A1) [4]
  protein expression of COL1A1 compared to the group treated with TGF-β: reduced
Fibronectin [5]
  protein expression of fibronectin compared to the group treated with TGF-β: reduced
HSP60 [6]
  protein expression of HSP60: no change
LX2 cells
  cell viability: ~100%
Fibronectin [7]
  gene expression of fibronectin compared to the group treated with TGF-β: reduced
HK-2 cells
  cell viability: ~100%
Fibronectin [8]
  protein expression of fibronectin compared to the group treated with TGF-β: reduced
Fibronectin [9]
  protein expression of fibronectin compared to the group treated with TGF-β: reduced
A549 cells
  cell viability: ~100%
Collagen type 1 (COL1A1) [10]
  gene expression of COL1A1 compared to the group treated with TGF-β: reduced
Collagen type 1 (COL1A1) [11]
  gene expression of COL1A1 compared to the group treated with TGF-β: reduced
HSP60 [12]
  protein expression of HSP60: no change
Collagen type 1 (COL1A1) [13]
  protein expression of COL1A1 compared to the group treated with TGF-β: reduced
Fibronectin [14]
  gene expression of fibronectin compared to the group treated with TGF-β: reduced
Fibronectin [15]
  gene expression of fibronectin compared to the group treated with TGF-β: reduced
